According to patent US9771370B2, “Compounds for the inhibition of indoleamine-2,3-dioxygenase” (Merck Patent GmbH, priority 2014, dated 2017):

Molecular target: Recombinant human IDO (Homo sapiens, UniProt P14902)
Experiment: Bridge-IT tryptophan fluorescence assay of human IDO-1 inhibition
Assay type: biochemical
Conditions: recombinant human IDO 7.5 nM, L-tryptophan
Protocol: Measurement of human IDO-1 inhibition is performed in 384 well format using the Bridge-IT® tryptophan Fluorescence Assay (Mediomics, LLC, St. Louis, Mo., U.S.A.).
The reaction is initiated by the addition of L-Tryptophan (Sigma) at a final concentration of 100 μM in assay buffer. After 90 minutes of incubation at 37° C., the reaction is stopped by transferring 1 μl of the reaction mixture to 9 μl of Bridge-IT assay solution A. After 30 min of incubation at 30° C., the fluorescence intensity was measured at λex=485 nm and λem=665 nm using Perkin Elmer Envision® Multilabel Reader.
Measurement of human IDO-1 inhibition was performed in 384-well format using the BRIDGE-IT® tryptophan Fluorescence Assay (Mediomics, LLC, St. Louis, Mo., U.S.A.). […] After 30 minutes of pre-incubation at 25° C., the reaction was initiated by the addition of L-Tryptophan (Sigma) at a final concentration of 50 μM in assay buffer. After 60 minutes of incubation at 25° C., the reaction is stopped by transferring 1 μl of the reaction mixture to 9 μl of Bridge-IT assay solution A. After 30 min of incubation at 30° C., the fluorescence intensity was measured at λex=485 nm and λem=665 nm using Perkin Elmer ENVISION® Multilabel Reader.

Chain of Recombinant human IDO (P14902 whole entry): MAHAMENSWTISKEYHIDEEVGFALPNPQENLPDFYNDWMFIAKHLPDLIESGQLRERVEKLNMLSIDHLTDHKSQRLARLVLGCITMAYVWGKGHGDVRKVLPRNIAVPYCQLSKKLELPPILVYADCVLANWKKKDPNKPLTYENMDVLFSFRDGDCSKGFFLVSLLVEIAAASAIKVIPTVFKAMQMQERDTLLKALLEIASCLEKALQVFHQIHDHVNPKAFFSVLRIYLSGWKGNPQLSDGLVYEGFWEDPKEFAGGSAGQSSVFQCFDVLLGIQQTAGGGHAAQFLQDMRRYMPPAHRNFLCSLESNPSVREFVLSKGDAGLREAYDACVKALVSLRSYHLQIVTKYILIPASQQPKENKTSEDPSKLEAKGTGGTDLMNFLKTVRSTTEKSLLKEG

Structure (SMILES) | IC50 [nM]
FC1(CCC2c3ccccc3-c3cncn32)CCCCC1 (single isomer, unassigned) [Compound 1b, 5-(2-(1-fluorocyclohexyl)ethyl)-5H-imidazo[5,1-a]isoindole] | 100 to 1000
OC(CC1c2ncccc2-c2cncn21)C1CCCCC1 (single isomer, unassigned) [Compound 5a, 1-cyclohexyl-2-[4,6,9-triazatricyclo[6.4.0.0^[2,6]]dodeca-1(8),2,4,9,11-pentaen-7-yl]ethan-1-ol] | 100 to 1000
OC(CC1c2ncccc2-c2cncn21)C1CCCCC1 (single isomer, unassigned) [Compound 5b, 1-cyclohexyl-2-[4,6,9-triazatricyclo[6.4.0.0^[2,6]]dodeca-1(8),2,4,9,11-pentaen-7-yl]ethan-1-ol] | > 1000
OC1CCC(F)(CCC2c3ncccc3-c3cncn32)CC1 (single isomer, unassigned) [Compound 8a, 4-fluoro-4-(2-{4,6,9-triazatricyclo[6.4.0.0^[2,6]]dodeca-1(8),2,4,9,11-pentaen-7-yl}ethyl)cyclohexan-1-ol] | 100 to 1000
OC1CCC(F)(CCC2c3ncccc3-c3cncn32)CC1 (single isomer, unassigned) [Compound 8b, 4-fluoro-4-(2-{4,6,9-triazatricyclo[6.4.0.0^[2,6]]dodeca-1(8),2,4,9,11-pentaen-7-yl}ethyl)cyclohexan-1-ol] | > 1000
FC1(CCC2c3cnccc3-c3cncn32)CCCCC1 (single isomer, unassigned) [Compound 10a, 7-[2-(1-fluorocyclohexyl)ethyl]-4,6,10-triazatricyclo[6.4.0.0^[2,6]]dodeca-1(8),2,4,9,11-pentaene] | > 1000
FC1(CCC2c3cnccc3-c3cncn32)CCCCC1 (single isomer, unassigned) [Compound 10b, 7-[2-(1-fluorocyclohexyl)ethyl]-4,6,10-triazatricyclo[6.4.0.0^[2,6]]dodeca-1(8),2,4,9,11-pentaene] | > 1000
OC1CCC(F)(CCC2c3ccccc3-c3cncn32)CC1 (single isomer, unassigned) [Compound 13a, 4-(2-(5H-imidazo[5,1-a]isoindol-5-yl)ethyl)-4-fluorocyclohexanol] | > 1000
OC1CCC(F)(CCC2c3ccccc3-c3cncn32)CC1 (single isomer, unassigned) [Compound 13b, 4-(2-(5H-imidazo[5,1-a]isoindol-5-yl)ethyl)-4-fluorocyclohexanol] | < 100

Further lines, results first:

IC50 [nM] | Structure (SMILES)
> 1000 | COc1cc2c(cn1)-c1cncn1C2CCC1(F)CCCCC1 (single isomer, unassigned) [Compound 15a, 7-[2-(1-fluorocyclohexyl)ethyl]-10-methoxy-4,6,11-triazatricyclo[6.4.0.0^[2,6]]dodeca-1(8),2,4,9,11-pentaene]
> 1000 | COc1cc2c(cn1)-c1cncn1C2CCC1(F)CCCCC1 (single isomer, unassigned) [Compound 15b, 7-[2-(1-fluorocyclohexyl)ethyl]-10-methoxy-4,6,11-triazatricyclo[6.4.0.0^[2,6]]dodeca-1(8),2,4,9,11-pentaene]
< 100 | OC1CCC(F)(CCC2c3c(F)cccc3-c3cncn32)CC1 (single isomer, unassigned) [Compound 16a, 4-fluoro-4-(2-(6-fluoro-5H-imidazo[5,1-a]isoindol-5-yl)ethyl)cyclohexanol]
100 to 1000 | OC1CCC(F)(CCC2c3c(F)cccc3-c3cncn32)CC1 (single isomer, unassigned) [Compound 16b, 4-fluoro-4-(2-(6-fluoro-5H-imidazo[5,1-a]isoindol-5-yl)ethyl)cyclohexanol]
100 to 1000 | FC1(CCC2c3ncccc3-c3cncn32)CCCCC1 (single isomer, unassigned) [Compound 18a, 7-[2-(1-fluorocyclohexyl)ethyl]-4,6,9-triazatricyclo[6.4.0.0^[2,6]]dodeca-1(8),2,4,9,11-pentaene]
> 1000 | FC1(CCC2c3ncccc3-c3cncn32)CCCCC1 (single isomer, unassigned) [Compound 18b, 7-[2-(1-fluorocyclohexyl)ethyl]-4,6,9-triazatricyclo[6.4.0.0^[2,6]]dodeca-1(8),2,4,9,11-pentaene]
> 1000 | Fc1cccc2c1C(CCC1(F)CCCCC1)n1cncc1-2 (single isomer, unassigned) [Compound 19a, 6-fluoro-5-(2-(1-fluorocyclohexyl)ethyl)-5H-imidazo[5,1-a]isoindole]
< 100 | Fc1cccc2c1C(CCC1(F)CCCCC1)n1cncc1-2 (single isomer, unassigned) [Compound 19b, 6-fluoro-5-(2-(1-fluorocyclohexyl)ethyl)-5H-imidazo[5,1-a]isoindole]
100 to 1000 | OC(CC1c2ncccc2-c2cncn21)C1CCC(F)(F)CC1 (single isomer, unassigned) [Compound 22a, 1-(4,4-difluorocyclohexyl)-2-[4,6,9-triazatricyclo[6.4.0.0^[2,6]]dodeca-1(8),2,4,9,11-pentaen-7-yl]ethan-1-ol]
> 1000 | OC(CC1c2ncccc2-c2cncn21)C1CCC(F)(F)CC1 (single isomer, unassigned) [Compound 22b, 1-(4,4-difluorocyclohexyl)-2-[4,6,9-triazatricyclo[6.4.0.0^[2,6]]dodeca-1(8),2,4,9,11-pentaen-7-yl]ethan-1-ol]
> 1000 | OC(CC1c2ncccc2-c2cncn21)C1CCC(F)(F)CC1 (single isomer, unassigned) [Compound 22c, 1-(4,4-difluorocyclohexyl)-2-[4,6,9-triazatricyclo[6.4.0.0^[2,6]]dodeca-1(8),2,4,9,11-pentaen-7-yl]ethan-1-ol]
> 1000 | OC(CC1c2ncccc2-c2cncn21)C1CCC(F)(F)CC1 (single isomer, unassigned) [Compound 22d, 1-(4,4-difluorocyclohexyl)-2-[4,6,9-triazatricyclo[6.4.0.0^[2,6]]dodeca-1(8),2,4,9,11-pentaen-7-yl]ethan-1-ol]
> 1000 | CC1(C)CCC(F)(CCC2c3c(F)cccc3-c3cncn32)CC1 (single isomer, unassigned) [Compound 23a, 6-fluoro-5-(2-(1-fluoro-4,4-dimethylcyclohexyl)ethyl)-5H-imidazo[5,1-a]isoindole]
> 1000 | OC(CC1c2cc(F)ncc2-c2cncn21)C1CCCCC1 (single isomer, unassigned) [Compound 24a, 1-cyclohexyl-2-[10-fluoro-4,6,11-triazatricyclo[6.4.0.0^[2,6]]dodeca-1(8),2,4,9,11-pentaen-7-yl]ethan-1-ol]
> 1000 | OC(CC1c2cc(F)ncc2-c2cncn21)C1CCCCC1 (single isomer, unassigned) [Compound 24b, 1-cyclohexyl-2-[10-fluoro-4,6,11-triazatricyclo[6.4.0.0^[2,6]]dodeca-1(8),2,4,9,11-pentaen-7-yl]ethan-1-ol]
< 100 | OC(CC1c2cc(F)ncc2-c2cncn21)C1CCCCC1 (single isomer, unassigned) [Compound 24c, 1-cyclohexyl-2-[10-fluoro-4,6,11-triazatricyclo[6.4.0.0^[2,6]]dodeca-1(8),2,4,9,11-pentaen-7-yl]ethan-1-ol]
< 100 | OC(CC1c2cc(F)ncc2-c2cncn21)C1CCCCC1 (single isomer, unassigned) [Compound 24d, 1-cyclohexyl-2-[10-fluoro-4,6,11-triazatricyclo[6.4.0.0^[2,6]]dodeca-1(8),2,4,9,11-pentaen-7-yl]ethan-1-ol]
